13 compounds from patent publication US8828987B2, “Pyridine amide derivatives as EP4 receptor antagonists” (Rottapharm Biotech S.R.L., priority 2010, dated 2014) can be followed below.

Read-outs that look alike come from different tables or passages of the source.

The target in data set [1] is T1, human EP4 receptor (Homo sapiens, UniProt P35408).
T1 construct: expressed in transfected cells; membrane fraction used
The data set can be described thus: cAMP assay (AlphaScreen) on human EP4 membrane of transfected cells, antagonism of PGE2. The class given is biochemical. As to conditions: HEK293 hEP4 cell membrane stimulated with PGE2 3 nM; read-out: functional IC50. The text has this: (§1) Stable Expression of Human EP4 Receptors in the Human Embryonic Kidney (HEK293) Cell Line
(§2) The cDNA clone of human EP4 receptor (NM_000958.2) was obtained from Invitrogen™: Ultimate™ ORF Clone Collection—Clone ID IOH46525. The coding sequence was subcloned in expression vector pcDNA™6.2/V5-DEST by Gateway technology (Invitrogen™).
(§3) Human embryonic kidney cells (HEK-293) were stably transfected with expression vector for human EP4 receptor in according to the method described in FuGENE®6 Transfection Reagent's manual (Roche Applied Science®).
(§4) Preparation of Membrane Fraction:
(§5) The EP4 transfected cells were grown in Dulbecco's modified Eagle's medium containing 10% fetal bovine serum and 10 μg/ml Blasticidin S HCl (selection medium) at 37° C. in a humidified atmosphere of 5% CO2 in air.
(§6) For the membrane preparation, cells in flask were harvested by hypotonical/mechanical lysis with chilled (4° C.) TE buffer (5 mM TRIS, 5 mM etylenediamine tetra-acetic acid (EDTA), pH 7.4).
(§7) Cells were detached and lysed with 10 ml of hypotonic lysis buffer and by scraping. The cell lysate was vortexed for 30 sec and centrifuged at 40000×g at 4° C. for 22 min.
b) cAMP Assay on Human EP4 Membrane of Transfected Cells.
The assay is based on the competition between endogenous cAMP and exogenously added biotinylated cAMP. The capture of cAMP is achieved by using a specific antibody conjugated to […] beads.
Cell membranes prepared as described above, were resuspended in 1 ml stimulation buffer (HBSS 1×+BSA 0.1%+IBMX 0.5 mM+HEPES 5 mM+MgCl2 10 mM+GTP 1 nM+GDP 10 μM+ATP 100 μM−pH 7.4). Cell membranes were dispensed into white 384-well microplates at final concentration of 1 μg/well and used for the determination of cAMP with the alphascreen cAMP functional assay (EnVision—PerkinElmer). Cell membrane/anti-cAMP Acceptor beads mix (5 μl) and a mixture of analysed compounds (dissolved in 100% DMSO to a final maximal concentration of 0.01% DMSO)/PGE2 (5 μl) were incubated at room temperature (22-23° C.) for 30 min in the dark. The Biotinylated-cAMP and donor beads (15 μl) were dispensed into each well to start the competition reaction. After 1 h incubation RT (22-23° C.) in the dark the plate was read using EnVision platform to determine the cAMP level (excitation: 680 nm; emission: 520,620 nm).
cAMP standard curve (concentration range from 1×10-6 to 1×10-11 M in. log intervals) with a negative control (no cAMP) a positive control:forskolin 10 μM
Antagonism studies were performed stimulating HEK293 cell membrane with PGE2 3 nM. The AlphaScreen signal is plotted as a function of log concentration of cAMP and functional IC50 is determined. IC50 value is calculated by linear regression.
Some compounds were tested according to method of example 83b.
In general terms: Changes in cAMP serve as a functional read-out for many G protein-coupled receptors.

Data set [2] has as its target T1, human EP4 receptor. Briefly: [3H]-Prostaglandin E2 membrane binding assay (human EP4/HEK293 transfectant membranes). As to conditions: [3H]-PGE2 1 nM, hEP4/HEK293 membranes; Ki by Cheng-Prusoff; read-out: Binding pKi (converted).
Excerpt: as §1, §2, §3, §4, §5, §6, §7
a) Membrane Binding Assay[3H]-Prostaglandin E2
The membrane pellet was resuspended in the same buffer (5 mM TRIS, 5 mM ethylenediamine tetra-acetic acid (EDTA), pH 7.4), and protein concentration was determined by Bradford method (Bio-Bad® assay).
This membrane preparation was stored at −80° C. freezer until use for binding assay.
([^3H]-PGE2) membranes binding assays toward hEP4 receptors (human EP4/HEK293 transfectant, see above) and hEP2 receptors (human EP2/HEK293 transfectant, purchased from PerkinElmer Inc) were performed in 10 mM MES-KOH buffer pH6, containing 10 mM MgCl2 and 1 mM CaCl2 for EP4 binding assay or 50 mM Tris-Cl, BSA 0.5% for EP2 binding assay (according to supplier indication).
Ten microgram of protein from membrane fractions were incubated in a total volume of 0.1 ml (EP4) or 0.2 ml (EP2) with 1 nM (EP4) or 3 nM (EP2) [^3H]-PGE2 (PerkinElmer Inc, 171 Ci/mmol). In both assays to determine the total binding or non specific binding, 1% DMSO or 1 μM prostaglandin E2 (EP4) or 100 μM (EP2) were added to reaction mixtures, respectively. Incubation was conducted in a polypropylene 96 multiwell for 90 min (EP4) or 60 min (EP2) at room temperature prior to separation of the bound and free radioligand by vacuum manifold rapid filtration on glass fiber filters (Unifilter GFB96, PerkinElmer Inc) pre-soaked in 0.3% polyethyleneimine. Filters were washed with ice cold buffer pH 7.4 (50 mM HEPES, NaCl 500 mM, BSA 0.1% for EP4 binding assay or 50 mM Tris-Cl for EP2 binding assays) and the residual [^3H]-PGE2 binding determined by solid scintillation counter (TopCount, PerkinElmer Inc).
The affinity (Ki) of each compound was calculated according to the Cheng-Prousoff equation: Ki=IC50/(1+([C]/Kd)). Results were expressed as pKi (−log 10 Ki (M)
Compounds of example 1 to 82 were tested according to method of example 83a in a final concentration range from 1 nM to 1 μM.

Data set [3] in a line: Pharmacokinetics in male Han Wistar rats, intravenous and oral. The data set is classed as in vivo. As to conditions: rat; for AUC(0-inf) / AUC(0-t) / clearance / Vd / half-life / Cmax / Tmax / bioavailability: male, Han Wistar, plasma; for clearance: read-out: CLp* (converted); for Vd: read-out: Vss*; for half-life: read-out: t½* (converted); for bioavailability: po, 2 mg/kg. On the procedure: Determination of PK of the Invention Compounds
The pharmacokinetics of compounds E10, E16, E34, E38, E51, were studied in male Han Wistar rats. The rats were treated intravenously and orally (n=3 for each dose route) with a compounds formulated as solutions. The rats were fitted with a jugular cannula for serial sampling. A full profile was acquired for each rat. Plasma extracts were quantitatively analyzed using a specific and sensitive LC-MS/MS bioanalytical method. Inter-individual variations between the three rats in each group were limited (CV for pharmacokinetic parameters was below 50%).

T1 sequence (P35408 whole entry): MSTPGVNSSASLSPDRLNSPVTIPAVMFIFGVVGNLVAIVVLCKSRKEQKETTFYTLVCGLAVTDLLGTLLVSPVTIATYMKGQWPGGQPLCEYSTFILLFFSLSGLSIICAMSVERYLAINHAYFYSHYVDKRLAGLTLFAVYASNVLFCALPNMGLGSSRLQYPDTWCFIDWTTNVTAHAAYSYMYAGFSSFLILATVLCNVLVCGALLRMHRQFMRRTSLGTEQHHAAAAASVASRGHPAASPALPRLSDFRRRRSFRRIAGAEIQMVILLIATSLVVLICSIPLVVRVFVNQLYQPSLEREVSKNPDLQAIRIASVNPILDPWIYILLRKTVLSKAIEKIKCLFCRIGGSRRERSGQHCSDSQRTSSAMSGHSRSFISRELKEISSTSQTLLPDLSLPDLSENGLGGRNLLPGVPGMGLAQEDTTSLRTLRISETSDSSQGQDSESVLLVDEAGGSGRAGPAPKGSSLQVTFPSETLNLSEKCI

For the compound `O=C(O)c1ccc(C2(NC(=O)c3cc(Cl)cnc3N3CC(Oc4cccc(F)c4)C3)CC2)cc1` [E 16, 4-(1-(5-chloro-2-(3-(3-fluorophenoxy)azetidin-1-yl)nicotinamido)cyclopropyl)benzoic acid], the IC50 – broadly, the concentration at which inhibition is half-maximal – on human EP4 receptor [1] worked out at 0.04 µM. At human EP4 receptor [2], the Ki was 0.00316 µM. Also, in data set [3] (IV, 2.0 mg/kg), the AUC(0-inf) (usually the area under the concentration-time curve extrapolated to infinity) stood at 3330 ng·h/mL, the AUC(0-t) (commonly the area under the concentration-time curve up to a stated or last time point) worked out at 3290 ng·h/mL, the clearance is 2.67 mL/min and the Vd is 0.394 L. Further, in data set [3] (IV, 2.0 mg/kg), the half-life was 5.62 h and the Tlast was 24 h. For the same compound, in data set [3] (PO, 2.0 mg/kg), the AUC(0-inf) came to 3000 ng·h/mL; the AUC(0-t) worked out at 2990 ng·h/mL; the Cmax – broadly, the peak of the concentration-time curve – was 1800 ng/mL; the Tmax (usually the time at which the peak concentration occurs) is 0.25 h. Further, in data set [3] (PO, 2.0 mg/kg), the half-life is 3.12 h and the Tlast is 24 h. Also, in data set [3] (PO, 2.0 mg/kg, read-out: F %), the bioavailability is 91%. For the same compound, the bioavailability in data set [3] (after oral administration, read-out: absolute oral bioavailability F) is 90%.

For the compound `O=C(O)c1ccc(C2(NC(=O)c3cc(Cl)cnc3N3CC(Oc4ccccc4)C3)CC2)cc1` [E 10, 4-(1-(5-chloro-2-(3-phenoxyazetidin-1-yl)nicotinamido)cyclopropyl)benzoic acid], the IC50 on human EP4 receptor [1] is 0.046 µM. For the same compound, the Ki on human EP4 receptor [2] is 0.0158 µM. Also, in data set [3] (IV, 2.0 mg/kg), the AUC(0-inf) amounted to 3150 ng·h/mL, the AUC(0-t) worked out at 3090 ng·h/mL, the clearance is 2.68 mL/min and the Vd was found to be 0.307 L. In addition, in data set [3] (IV, 2.0 mg/kg), the half-life was 3.96 h and the Tlast amounted to 24 h. In addition, in data set [3] (PO, 2.0 mg/kg), the AUC(0-inf) came out at 1820 ng·h/mL, the AUC(0-t) amounted to 1720 ng·h/mL, the Cmax was found to be 923 ng/mL and the Tmax was determined as 0.25 h. Besides, in data set [3] (PO, 2.0 mg/kg), the half-life is 4.85 h and the Tlast is on record as 24 h. Besides, in data set [3] (PO, 2.0 mg/kg, read-out: F %), the bioavailability was 56%.

`O=C(O)c1ccc(C2(NC(=O)c3cc(Cl)cnc3N3CCC(Oc4ccc(F)cc4)C3)CC2)cc1` (single isomer, unassigned) [E 66, 4-(1-(5-chloro-2-(3-(4-fluorophenoxy)pyrrolidin-1-yl)nicotinamido)cyclopropyl)benzoic acid]: the concentration for half-maximal inhibition (IC50) on human EP4 receptor [1] was found to be 0.043 µM. In addition, at human EP4 receptor [2], the Ki was 0.0398 µM.

With `O=C(O)c1ccc(C2(NC(=O)c3cc(Cl)cnc3N3CC(Oc4ccc(C(F)(F)F)cc4)C3)CC2)cc1` [E 13, 4-(1-(5-chloro-2-(3-(4-(trifluoromethyl)phenoxy)azetidin-1-yl)nicotinamido)cyclopropyl)benzoic acid], on human EP4 receptor [1], the IC50 is 0.187 µM. Also, at human EP4 receptor [2], the Ki is 0.0251 µM.

For the compound `O=C(O)c1ccc(C2(NC(=O)c3cc(C(F)(F)F)cnc3N3CC(Oc4ccc(F)cc4)C3)CC2)cc1` [E 39, 4-(1-(2-(3-(4-fluorophenoxy)azetidin-1-yl)-5-(trifluoromethyl)nicotinamido)cyclopropyl)benzoic acid], the IC50 at human EP4 receptor [1] is 0.072 µM. Further, the Ki on human EP4 receptor [2] is 0.00794 µM.

On to `O=C(O)c1ccc(C2(NC(=O)c3cc(Cl)cnc3N3CC(Oc4cccc(N5CCNCC5)c4)C3)CC2)cc1` [E 21, 4-(1-(5-chloro-2-(3-(3-(piperazin-1-yl)phenoxy)azetidin-1-yl)nicotinamido)cyclopropyl)benzoic acid], for which the IC50 at human EP4 receptor [1] is 0.191 µM. Moreover, on human EP4 receptor [2], the Ki is 0.0631 µM.

`O=C(O)c1ccc(C2(NC(=O)c3cc(C(F)(F)F)cnc3N3CC(Nc4ccc(F)cc4)C3)CC2)cc1` [E 50, 4-(1-(2-(3-((4-fluorophenyl)amino)azetidin-1-yl)-5-(trifluoromethyl)nicotinamido)cyclopropyl)benzoic acid]: at human EP4 receptor [1], the IC50 was 0.023 µM. In addition, the Ki on human EP4 receptor [2] was 0.0126 µM.

For `O=C(O)c1ccc(C2(NC(=O)c3cc(Cl)cnc3N3CC(Nc4ccc(F)cc4)C3)CC2)cc1` [E 33, 4-(1-(5-chloro-2-(3-((4-fluorophenyl)amino)azetidin-1-yl)nicotinamido)cyclopropyl)benzoic acid], the IC50 at human EP4 receptor [1] is 0.0445 µM. Further, on human EP4 receptor [2], the Ki is 0.00631 µM.

As for `O=C(O)c1ccc(C2(NC(=O)c3cc(Cl)cnc3N3CCC(Oc4cccc(F)c4)C3)CC2)cc1` (single isomer, unassigned) [E 71, 4-(1-(5-chloro-2-(3-(3-fluorophenoxy)pyrrolidin-1-yl)nicotinamido)cyclopropyl)benzoic acid], the IC50 at human EP4 receptor [1] came out at 0.11 µM. The Ki at human EP4 receptor [2] is 0.0398 µM.

Take `O=C(O)c1ccc(C2(NC(=O)c3cc(Cl)cnc3N3CC(Nc4ccc(F)cc4F)C3)CC2)cc1` [E 35, 4-(1-(5-chloro-2-(3-((2,4-difluorophenyl)amino)azetidin-1-yl)nicotinamido)cyclopropyl)benzoic acid]: at human EP4 receptor [1], the IC50 was 0.059 µM. At human EP4 receptor [2], the Ki is 0.00631 µM.

Regarding `O=C(O)c1ccc(C2(NC(=O)c3cc(Cl)cnc3N3CCC(Oc4ccc(F)cc4)C3)CC2)cc1` (single isomer, unassigned) [E 68, 4-(1-(5-chloro-2-(3-(4-fluorophenoxy)pyrrolidin-1-yl)nicotinamido)cyclopropyl)benzoic acid], the IC50 on human EP4 receptor [1] was 0.066 µM. The Ki on human EP4 receptor [2] was 0.0316 µM.

With `O=C(O)c1ccc(C2(NC(=O)c3cc(Cl)cnc3N3CCC(COc4cccc(F)c4)C3)CC2)cc1` (centres unmarked) [E 76, 4-(1-(5-chloro-2-(3-((3-fluorophenoxy)methyl)pyrrolidin-1-yl)nicotinamido)cyclopropyl)benzoic acid], the IC50 at human EP4 receptor [1] turned out to be 0.024 µM. The Ki at human EP4 receptor [2] was 0.0316 µM.

In the case of `O=C(O)c1ccc(C2(NC(=O)c3cc(C(F)(F)F)cnc3N3CC(Oc4ccc(Cl)cc4)C3)CC2)cc1` [E 40, 4-(1-(2-(3-(4-chlorophenoxy)azetidin-1-yl)-5-(trifluoromethyl)nicotinamido)cyclopropyl)benzoic acid], at human EP4 receptor [1], the IC50 was found to be 0.01 µM. Also, the Ki at human EP4 receptor [2] is 0.00501 µM.
